One compound from patent publication US12351574B2, “Selective ligands for modulation of GIRK channels” (Northeastern University, priority 2018, dated 2025) can be followed below.

For one series, the target named is T1, GIRK1/2(V-T) (UniProt P48542+P48549, V99T).
T1 construct: expressed in transfected cells; host or cells: Xenopus laevis oocytes (cRNA injection)
T1 sequence (P48549 1-501): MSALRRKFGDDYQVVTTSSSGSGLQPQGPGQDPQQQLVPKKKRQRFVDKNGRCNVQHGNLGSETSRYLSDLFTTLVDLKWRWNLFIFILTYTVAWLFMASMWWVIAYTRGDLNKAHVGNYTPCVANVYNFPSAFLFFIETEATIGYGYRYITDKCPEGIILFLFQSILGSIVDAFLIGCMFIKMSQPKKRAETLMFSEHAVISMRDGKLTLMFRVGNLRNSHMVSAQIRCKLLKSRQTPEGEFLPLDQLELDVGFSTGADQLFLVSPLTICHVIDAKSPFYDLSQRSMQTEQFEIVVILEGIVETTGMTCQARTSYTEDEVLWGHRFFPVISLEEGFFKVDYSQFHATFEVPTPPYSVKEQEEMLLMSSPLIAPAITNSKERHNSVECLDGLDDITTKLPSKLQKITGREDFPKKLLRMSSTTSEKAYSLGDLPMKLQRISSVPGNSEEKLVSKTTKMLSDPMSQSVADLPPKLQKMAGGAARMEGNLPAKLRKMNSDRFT
T1 sequence (P48542 1-425 V99T): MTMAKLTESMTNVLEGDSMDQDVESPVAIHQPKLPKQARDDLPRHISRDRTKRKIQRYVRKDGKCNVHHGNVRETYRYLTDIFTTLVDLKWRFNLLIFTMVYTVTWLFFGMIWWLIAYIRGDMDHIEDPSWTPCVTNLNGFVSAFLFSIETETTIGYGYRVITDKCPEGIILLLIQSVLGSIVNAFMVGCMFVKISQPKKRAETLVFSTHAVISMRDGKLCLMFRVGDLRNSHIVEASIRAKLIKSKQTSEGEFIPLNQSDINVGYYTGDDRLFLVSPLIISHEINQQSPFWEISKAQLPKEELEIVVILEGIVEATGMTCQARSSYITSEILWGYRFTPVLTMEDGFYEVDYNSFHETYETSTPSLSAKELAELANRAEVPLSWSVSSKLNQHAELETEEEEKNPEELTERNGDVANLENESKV
Put plainly: TEVC in Xenopus oocytes, single mutant GIRK1/2(V-T). The class given is cell-based, human GIRK1, mouse GIRK2. The settings on record: GIRK1/2(V-T) single mutant. An excerpt: Molecular biology: For Xenopus oocyte expression, human GIRK1 and human GIRK4 cDNAs were subcloned into pGEMHE. For mammalian expression, human GIRK1 and human GIRK4 cDNAs were subcloned into pcDNA3 and pcDNA3.1/V5-His B, respectively (Invitrogen). Mouse GIRK2 cDNA was subcloned in the dual-function vector, pXoom. Point mutations were introduced using a standard Pfu-based mutagenesis technique according to the QuikChange protocol (Agilent). Mutations were verified by sequencing.
Electrophysiology of oocytes: Whole-oocyte currents were measured by conventional two-electrode voltage clamp (TEVC) with a GeneClamp 500 amplifier (Axon Instruments). Agarose cushion microelectrodes were filled with 1.5% (w/v) agarose in 3 M KCl and were used with resistances between 0.1 and 1.5 megaohms. […] Barium-sensitive basal currents from both groups, 1) Vehicle, 2) single concentration at 10 μM and 3) multiple concentrations of ML297 or GAT compounds in the presence of HK solution, were assessed at −80 mV using TEVC. Barium-sensitive currents were normalized to average basal current in the vehicle solutions. The HK solution contained the following: 96 mM KCl, 1 mM NaCl, 1 mM MgCl2, 5 mM KOH/HEPES, pH 7.4. The barium solution consisted of HK+10 mM BaCl2. Five to ten oocytes from the same batch (same frog) were recorded for each group, and the experiments were repeated in at least four batches. Data acquisition and analysis were carried out using pClamp9 (Molecular Devices) and OriginPro (Microcal) software.
To test these computational predictions, the inventors mutated each or both of the two M1 key wild-type GIRK4 subunit residues to the corresponding GIRK2 residues (GIRK4-V92I, GIRK4-T94V, GIRK4-V92I/T94V or GIRK4-dm) and vice-versa the GIRK2 residues to the corresponding GIRK4 ones (GIRK2-I97V, GIRK2-V99T, GIRK2-I97V/V99T or GIRK2-dm) (FIG. 35). […]

Series [1] is described as follows: novel object recognition (NOR) test. The class given is in vivo, rat. The settings on record: 10 and 30 mg/kg. On the procedure:
Novel object recognition test (NORT): Novel object recognition test was performed in an open-field box measuring 100×100×20 cm as previously described. Prior to testing, the rats were allowed to explore the box for 5 min per day for 3 consecutive days with no objects present. Testing consisted of two 2 min trials. During a familiarization trial, two identical objects (plastic cylinders 6 cm in diameter and 12 cm tall in white and red) were placed in two adjacent corners. The animal was then released against the center of the opposite wall with its back to the objects. This was done to prevent coercion to explore the objects. The animals were regarded to be exploring when they were facing, sniffing, or biting the object with nose and/or forepaws. Immediately after familiarization, the rats received intraperitoneal (i.p.) injections of vehicle or ligands and were returned to its home cage. After a waiting period of 3 h (|T|=3 h), the rat was placed in the box again and test trial was performed. […] The times spent in exploring each object during both trials were recorded manually by using a stopwatch. […] Discrimination index (DI) was used to measure object recognition and is calculated as the difference in time exploring the novel (TN) versus familiar object (TF), then dividing this value by the total time spent exploring the two objects in the test trial. […]

As for `Cc1cc(NC(=O)Nc2ccc(Br)s2)n(-c2ccccc2)n1` [GAT1508, 1-(5-bromothiophen-2-yl)-3-(3-methyl-1-phenyl-1H-pyrazol-5-yl)urea], on GIRK1/2(V-T), the EC50 was 0.53 ± 0.07 µM and the EMAX is 1.92±0.03. In addition, the Emax on GIRK1/2(V-T) (read-out: EMAX, % of the control GIRK1/2) was 65%. The “discrimination index (in words)” value in series [1] is “similar”.
